{"source": "patent US20260373156A1", "about": "“CANCER TREATMENTS USING MTA-COOPERATIVE PRMT5 INHIBITORS” (AMGEN INC., priority 2022, published 2026)", "key": {"[1]": {"tested_on": "H1650 cells", "type": "cell-based", "conditions": "8640 min, 0.44 µM", "method": "(§1) A MTAP-null NSCLC cancer cell line (H1650) was treated with the combination of Compound G and osimertinib for 6 days. Compound G was performed at a 1.9-fold dilution series and the combination partner was performed at 1.2 to 1.7 fold dilution series to create an 8×10 dose matrix including DMSO-only controls. Cell viability was measured by the CellTiter-Glo Luminescence assay. Raw luminescent values were converted to fraction affected (Fa) with the following equation: […]\n(§2) Synergy analysis was performed using the CalcuSyn software to determine CI scores based on the drug concentrations used and corresponding Fa values."}, "[2]": {"tested_on": "LU99 cells", "assay": "CellTiter-Glo viability and CalcuSyn synergy, PRMT5 inhibitor + sotorasib, 6 days"}, "[3]": {"tested_on": "A549 cells", "assay": "CellTiter-Glo viability and CalcuSyn synergy, PRMT5 inhibitor + palbociclib, 6 days", "conditions": "a549 cells, 8640 min, 0.437382 µM"}, "[4]": {"tested_on": "MIAPACA2T2 cells", "assay": "CellTiter-Glo viability and CalcuSyn synergy, PRMT5 inhibitor + sotorasib, 6 days", "conditions": "miapaca2t2 cells, 8640 min, 0.4374 µM"}, "[5]": {"tested_on": "LU99 NSCLC xenografts", "conditions": "mouse, in vivo"}, "[6]": {"tested_on": "PSN1 cells", "assay": "CellTiter-Glo viability and CalcuSyn synergy, PRMT5 inhibitor + KIF18A, 6 days", "conditions": "psn1 cells, 8640 min, 0.0767 µM"}, "[7]": {"tested_on": "MiaPaCa2 PDAC xenografts", "set-up": "species or system Female NOD/SCID mice", "conditions": "mouse, in vivo", "experimental": "FIG. 6A: Mice were implanted with LU99 (NSCLC CDX) tumors, FIG. 6B: LU5268 (NSCLC PDX) tumors. FIG. 6C: MiaPaCa2 (PDAC CDX) tumors. Vehicle, Compound G, and sotorasib were dosed as indicated. Data represent mean±SD, n=10 for each group.\n10 Female NOD/SCID mice were implanted with LU99 NSCLC, LU5268 NSCLC or MisPaCa2 PDAC tumor xenografts. Mean tumor volumes for each grouping were between 100-200 mm^3. Mice were allocated to the four different study groups by tumor volume and dosing was initiated with Vehicle, Compound G (100 mg/kg), sotorasib (100 mg/kg) orally once daily or a combination of Compound G (100 mg/kg) with sotorasib (100 mg/kg). Plotted data represents the TGI (tumor growth inhibition), n=10 for each group."}, "[8]": {"tested_on": "HCC1395 cells", "assay": "CellTiter-Glo viability and CalcuSyn synergy, PRMT5 inhibitor + olaparib, 6 days", "conditions": "hcc1395 cells, 8640 min, 0.7673 µM"}, "[9]": {"tested_on": "A549 cells", "assay": "CellTiter-Glo viability and CalcuSyn synergy, PRMT5 inhibitor + KRAS G12X inhibitor, 6 days", "conditions": "a549 cells, 8640 min, 0.4374 µM"}, "[10]": {"tested_on": "MIAPACA2T2 cells", "assay": "CellTiter-Glo viability and CalcuSyn synergy, PRMT5 inhibitor + KIF18A, 6 days"}, "[11]": {"tested_on": "A549 cells", "assay": "CellTiter-Glo viability and CalcuSyn synergy, PRMT5 inhibitor + trametinib, 6 days"}, "[12]": {"tested_on": "H1650 cells", "type": "cell-based", "method": "as §1, with “erlotinib” for “osimertinib”\nas §2"}, "[13]": {"tested_on": "H292 cells", "assay": "CellTiter-Glo viability and CalcuSyn synergy, PRMT5 inhibitor + palbociclib, 6 days", "conditions": "h292 cells, 8640 min, 0.1212 µM"}, "[14]": {"tested_on": "LU99 NSCLC xenografts", "conditions": "mouse, in vivo", "remark": "listed apart in the source"}, "[15]": {"tested_on": "LU5268 NSCLC xenografts", "conditions": "mouse, in vivo"}, "[16]": {"tested_on": "MIAPACA2T2 cells", "assay": "CellTiter-Glo viability and CalcuSyn synergy, PRMT5 inhibitor + trametinib, 6 days"}}, "note": "Where “and” joins values, the source holds several entries; their conditions need not be identical. Identical values can stand only once. Like-named read-outs stand apart in the source and are kept apart here.", "data": [{"smiles": "Nc1nc2cnc(C(=O)N3CCOC[C@@H]3c3ccc(C(F)(F)F)cc3)cc2c2c1COC2", "note": "[Compound G]", "values": [{"measurement": "Combination Fa", "setting": "[1]", "result": "0.74 and 0.73 and 0.69 and 0.67 and 0.66 and 0.88 and 0.76"}, {"measurement": "Computed CI value", "setting": "[2]", "result": "0.276 and 0.234 and 0.289 and 0.249 and 0.281 and 0.424 and 0.294"}, {"measurement": "Combination Fa", "setting": "[2]; lu99 cells, 8640 min, 0.1458 µM", "result": "0.817 and 0.821 and 0.794 and 0.804 and 0.787 and 0.825"}, {"measurement": "Combination Fa", "setting": "[3]", "result": "0.717 and 0.713 and 0.732 and 0.683 and 0.682 and 0.86 and 0.735"}, {"measurement": "Combination Fa", "setting": "[4]", "result": "0.818 and 0.785 and 0.712 and 0.633 and 0.519 and 0.829 and 0.84"}, {"measurement": "tumor growth inhibition", "setting": "[5]", "result": "significantly inhibits tumor growth"}, {"measurement": "Combination Fa", "setting": "[6]", "result": "0.858 and 0.868 and 0.837 and 0.811 and 0.781 and 0.923 and 0.86"}, {"measurement": "tumor growth inhibition", "setting": "[7]", "result": "significantly inhibits tumor growth"}, {"measurement": "Combination Fa", "setting": "[8]", "result": "0.6464 and 0.5971 and 0.5852 and 0.5488 and 0.55 and 0.7334 and 0.6661"}, {"measurement": "Combination Fa", "setting": "[9]", "result": "0.8549 and 0.7807 and 0.755 and 0.7181 and 0.6897 and 0.833 and 0.8551"}, {"measurement": "Computed CI value", "setting": "[10]", "result": "0.561 and 0.6 and 0.594 and 0.774 and 0.68 and 1.044 and 0.802"}, {"measurement": "Combination Fa", "setting": "[10]; miapaca2t2 cells, 8640 min, 0.437381 µM", "result": "0.7856 and 0.6938 and 0.6123 and 0.4815 and 0.4538 and 0.85 and 0.8122"}, {"measurement": "Computed CI value", "setting": "[11]", "result": "0.276 and 0.365 and 0.349 and 0.48 and 0.512 and 0.43 and 0.384"}, {"measurement": "Combination Fa", "setting": "[11]; a549 cells, 8640 min, 0.4374 µM", "result": "0.8494 and 0.7817 and 0.7499 and 0.6788 and 0.6495 and 0.894 and 0.8631"}, {"measurement": "Computed CI value", "setting": "[12]", "result": "0.40 and 0.29 and 0.34 and 0.35 and 0.52 and 0.48"}, {"measurement": "Combination Fa", "setting": "[12]; h1650 cells, 8640 min, 0.23 µM", "result": "0.73 and 0.67 and 0.64 and 0.59 and 0.79 and 0.75"}, {"measurement": "Combination Fa", "setting": "[13]", "result": "0.8154 and 0.7885 and 0.7925 and 0.7748 and 0.7116 and 0.8564 and 0.824"}, {"measurement": "anti-tumor activity", "setting": "[14]", "result": "significant anti-tumor activity versus either single agent alone"}, {"measurement": "tumor growth inhibition", "setting": "[15]", "result": "significantly inhibits tumor growth"}, {"measurement": "Computed CI value", "setting": "[16]", "result": "0.579 and 0.774 and 0.806 and 0.84 and 0.868 and 0.784 and 0.557"}, {"measurement": "Combination Fa", "setting": "[16]; miapaca2t2 cells, 8640 min, 0.83102 µM", "result": "0.792 and 0.69 and 0.63 and 0.583 and 0.551 and 0.868 and 0.85"}]}]}
